Measured values reported in ChEMBL document CHEMBL2176887, “Chemokine receptor antagonists” (J Med Chem, 2012).

How the values were obtained:
[1] = molecular target: T1, Muscarinic acetylcholine receptor M2 (Homo sapiens, UniProt P08172)
T1 sequence (P08172 whole entry): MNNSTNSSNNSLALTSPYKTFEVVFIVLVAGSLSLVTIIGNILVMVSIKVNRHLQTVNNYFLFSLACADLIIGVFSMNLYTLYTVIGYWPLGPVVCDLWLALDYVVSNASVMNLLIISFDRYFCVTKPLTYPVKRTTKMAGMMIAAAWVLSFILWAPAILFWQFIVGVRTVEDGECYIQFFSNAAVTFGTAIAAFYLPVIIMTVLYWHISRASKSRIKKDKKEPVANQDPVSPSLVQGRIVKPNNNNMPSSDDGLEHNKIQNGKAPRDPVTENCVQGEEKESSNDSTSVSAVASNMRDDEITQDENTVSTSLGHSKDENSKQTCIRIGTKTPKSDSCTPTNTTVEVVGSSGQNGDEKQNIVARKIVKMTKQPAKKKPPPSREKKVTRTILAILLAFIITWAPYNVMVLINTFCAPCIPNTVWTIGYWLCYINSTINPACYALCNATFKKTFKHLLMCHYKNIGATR
Description: Binding affinity to muscarinic M2 receptor

[2] = molecular target: C-C chemokine receptor type 5 (Homo sapiens, UniProt P51681)
Sequence of C-C chemokine receptor type 5 (P51681 whole entry): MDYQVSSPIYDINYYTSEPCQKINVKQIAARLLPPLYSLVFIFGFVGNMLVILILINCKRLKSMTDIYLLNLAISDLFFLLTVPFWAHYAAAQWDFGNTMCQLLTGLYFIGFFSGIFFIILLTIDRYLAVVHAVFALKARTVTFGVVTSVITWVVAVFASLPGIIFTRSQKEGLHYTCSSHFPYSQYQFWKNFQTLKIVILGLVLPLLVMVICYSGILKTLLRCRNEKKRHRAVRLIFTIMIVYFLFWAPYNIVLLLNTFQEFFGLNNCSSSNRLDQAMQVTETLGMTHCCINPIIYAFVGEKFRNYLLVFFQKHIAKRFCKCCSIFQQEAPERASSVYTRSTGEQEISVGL

physchem = settings: octanol/water
Description: Lipophilicity, log P of the compound

[3] = molecular target: T2, C-C chemokine receptor type 1 (Homo sapiens, UniProt P32246)
T2 sequence (P32246 whole entry): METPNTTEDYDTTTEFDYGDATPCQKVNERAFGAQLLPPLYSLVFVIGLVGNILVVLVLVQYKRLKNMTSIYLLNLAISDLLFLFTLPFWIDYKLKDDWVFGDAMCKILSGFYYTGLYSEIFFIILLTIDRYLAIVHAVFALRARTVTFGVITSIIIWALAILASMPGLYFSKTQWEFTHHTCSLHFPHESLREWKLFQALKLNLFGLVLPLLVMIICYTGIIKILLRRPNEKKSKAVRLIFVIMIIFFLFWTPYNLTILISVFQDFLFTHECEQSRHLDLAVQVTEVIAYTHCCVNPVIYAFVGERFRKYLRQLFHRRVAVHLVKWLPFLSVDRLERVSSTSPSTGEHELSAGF

[4] = molecular target: T3, C-C chemokine receptor type 3 (Homo sapiens, UniProt P51677)
T3 sequence (P51677 whole entry): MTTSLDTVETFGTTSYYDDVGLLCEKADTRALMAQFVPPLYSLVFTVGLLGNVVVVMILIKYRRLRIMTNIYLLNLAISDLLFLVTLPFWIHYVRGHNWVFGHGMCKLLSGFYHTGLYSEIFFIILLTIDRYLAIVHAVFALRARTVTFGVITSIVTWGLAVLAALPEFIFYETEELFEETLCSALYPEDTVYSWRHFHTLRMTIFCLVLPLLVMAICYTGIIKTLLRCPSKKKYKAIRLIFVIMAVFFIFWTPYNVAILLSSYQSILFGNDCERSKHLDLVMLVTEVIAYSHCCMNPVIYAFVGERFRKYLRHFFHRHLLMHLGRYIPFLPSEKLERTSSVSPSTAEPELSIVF

[5] = Oral bioavailability in dog; assay type: ADME, organism-based, Canis lupus familiaris; settings: in vivo
[6] = Half life in dog; assay type: ADME, organism-based, Canis lupus familiaris; settings: in vivo
Histamine H1 receptor [7] = molecular target: T4, Histamine H1 receptor (Homo sapiens, UniProt P35367); test: Antagonist activity at histamine H1 receptor expressed in human PC3 cells inhibition of histamine-induced calcium influx by cell based assay; assay type: functional, PC-3
T4 sequence (P35367 whole entry): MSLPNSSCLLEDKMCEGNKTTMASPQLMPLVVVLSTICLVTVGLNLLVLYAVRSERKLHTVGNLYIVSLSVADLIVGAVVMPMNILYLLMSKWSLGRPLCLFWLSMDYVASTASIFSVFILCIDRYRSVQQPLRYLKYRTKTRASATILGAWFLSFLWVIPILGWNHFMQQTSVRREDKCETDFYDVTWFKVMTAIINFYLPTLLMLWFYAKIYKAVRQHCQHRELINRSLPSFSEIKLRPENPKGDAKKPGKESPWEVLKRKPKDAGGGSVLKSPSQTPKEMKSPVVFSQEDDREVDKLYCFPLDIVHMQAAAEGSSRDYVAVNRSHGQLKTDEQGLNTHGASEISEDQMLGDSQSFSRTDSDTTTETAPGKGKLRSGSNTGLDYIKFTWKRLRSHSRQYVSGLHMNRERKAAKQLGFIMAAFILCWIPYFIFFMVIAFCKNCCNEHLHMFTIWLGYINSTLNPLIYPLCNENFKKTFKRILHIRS

[8] = molecular target: T3, C-C chemokine receptor type 3; test: Antagonist activity at human CCR3 assessed as inhibition of CCL11-induced calcium influx by cell based assay; assay type: functional
Thromboxane A2 receptor = molecular target: T5, Thromboxane A2 receptor (Homo sapiens, UniProt P21731)
T5 sequence (P21731 whole entry): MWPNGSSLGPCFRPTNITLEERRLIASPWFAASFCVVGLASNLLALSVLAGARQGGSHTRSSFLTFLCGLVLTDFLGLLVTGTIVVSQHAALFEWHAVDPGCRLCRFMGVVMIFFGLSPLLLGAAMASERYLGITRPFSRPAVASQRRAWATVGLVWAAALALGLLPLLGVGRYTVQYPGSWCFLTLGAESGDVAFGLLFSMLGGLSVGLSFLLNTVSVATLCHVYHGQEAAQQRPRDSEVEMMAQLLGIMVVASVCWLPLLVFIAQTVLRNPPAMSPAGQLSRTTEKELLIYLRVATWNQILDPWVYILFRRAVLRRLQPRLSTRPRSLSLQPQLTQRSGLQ
Description: Binding affinity to TXA2 receptor receptor

Histamine H1 receptor [9] = molecular target: T4, Histamine H1 receptor; test: Binding affinity to histamine H1 receptor
[10] = molecular target: T6, Type-1 angiotensin II receptor (Homo sapiens, UniProt P30556)
T6 sequence (P30556 whole entry): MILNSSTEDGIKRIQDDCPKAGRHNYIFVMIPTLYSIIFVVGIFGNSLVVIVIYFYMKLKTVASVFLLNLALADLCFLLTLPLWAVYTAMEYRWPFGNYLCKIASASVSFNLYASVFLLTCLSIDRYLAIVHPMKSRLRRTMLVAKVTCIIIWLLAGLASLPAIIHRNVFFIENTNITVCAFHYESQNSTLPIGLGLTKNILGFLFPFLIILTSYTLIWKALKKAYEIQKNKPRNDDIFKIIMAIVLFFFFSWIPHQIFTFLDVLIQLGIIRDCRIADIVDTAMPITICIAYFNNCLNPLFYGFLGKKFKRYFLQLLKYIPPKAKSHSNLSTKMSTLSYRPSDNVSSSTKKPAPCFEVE
Description: Binding affinity to AT1 receptor

[11] = system: Human immunodeficiency virus 1; test: Antiviral activity against Human immunodeficiency virus 1 ADA; assay type: functional, organism-based
[12] = Oral bioavailability in monkey; assay type: ADME, organism-based, Macaca mulatta; settings: rhesus monkey, in vivo
[13] = system: Human immunodeficiency virus 1; test: Antiviral activity against R5 tropic Human immunodeficiency virus 1; assay type: functional, organism-based
[14] = Half life in human; assay type: ADME, organism-based; settings: in vivo
[15] = octanol/water
Description: Lipophilicity, log P of the compound

[16] = system: Human immunodeficiency virus 1; test: Antiviral activity against Human immunodeficiency virus 1 clinical isolate; assay type: functional, organism-based
[17] = molecular target: T7, C-X-C chemokine receptor type 2 (Homo sapiens, UniProt P25025); test: Antagonist activity at CXCR2 assessed as inhibition of neutrophil CD11b up-regulation; assay type: functional
T7 sequence (P25025 whole entry): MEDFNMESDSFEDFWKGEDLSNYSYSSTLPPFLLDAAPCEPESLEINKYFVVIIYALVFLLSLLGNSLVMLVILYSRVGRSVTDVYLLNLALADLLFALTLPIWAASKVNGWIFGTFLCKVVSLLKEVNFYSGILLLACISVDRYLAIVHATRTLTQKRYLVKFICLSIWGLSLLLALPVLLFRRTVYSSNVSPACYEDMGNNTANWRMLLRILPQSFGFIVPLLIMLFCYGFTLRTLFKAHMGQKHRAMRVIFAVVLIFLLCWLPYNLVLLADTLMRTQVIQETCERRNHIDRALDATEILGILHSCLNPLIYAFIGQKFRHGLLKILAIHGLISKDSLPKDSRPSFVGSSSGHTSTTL

[18] = molecular target: T8, C-X-C chemokine receptor type 1 (Homo sapiens, UniProt P25024)
T8 sequence (P25024 whole entry): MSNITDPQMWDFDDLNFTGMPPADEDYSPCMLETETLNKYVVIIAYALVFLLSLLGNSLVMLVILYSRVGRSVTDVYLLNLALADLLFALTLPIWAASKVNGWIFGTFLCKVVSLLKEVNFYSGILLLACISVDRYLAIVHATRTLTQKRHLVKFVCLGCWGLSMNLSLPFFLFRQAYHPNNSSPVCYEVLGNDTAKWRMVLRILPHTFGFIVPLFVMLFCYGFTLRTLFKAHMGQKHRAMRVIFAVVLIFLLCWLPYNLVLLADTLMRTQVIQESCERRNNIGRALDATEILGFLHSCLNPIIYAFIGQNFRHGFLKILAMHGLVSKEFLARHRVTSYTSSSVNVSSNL
Description: Binding affinity to CXCR1

[19] = molecular target: T7, C-X-C chemokine receptor type 2
Description: Binding affinity to CXCR2

[20] = Oral bioavailability in rat; assay type: ADME, organism-based; settings: in vivo
[21] = Oral bioavailability in beagle dog; assay type: ADME, organism-based, Canis lupus familiaris; settings: in vivo
[22] = Half life in beagle dog; assay type: ADME, organism-based, Canis lupus familiaris; settings: in vivo
[23] = molecular target: T9, C-C chemokine receptor type 4 (Homo sapiens, UniProt P51679); test: Binding affinity to CCR4
T9 sequence (P51679 whole entry): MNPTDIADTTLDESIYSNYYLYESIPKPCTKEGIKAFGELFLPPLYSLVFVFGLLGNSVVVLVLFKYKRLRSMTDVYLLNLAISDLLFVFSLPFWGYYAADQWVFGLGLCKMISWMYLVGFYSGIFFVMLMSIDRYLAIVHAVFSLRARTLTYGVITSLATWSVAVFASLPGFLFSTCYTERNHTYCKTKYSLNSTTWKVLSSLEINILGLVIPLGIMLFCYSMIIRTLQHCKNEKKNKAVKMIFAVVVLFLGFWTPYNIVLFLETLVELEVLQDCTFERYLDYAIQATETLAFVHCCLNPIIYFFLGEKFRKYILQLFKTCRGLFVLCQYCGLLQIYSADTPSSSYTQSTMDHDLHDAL

[24] = Half life in rat; assay type: ADME, organism-based; settings: in vivo
[25] = system: Human immunodeficiency virus 1; test: Antiviral activity against CCR5-tropic HIV1; assay type: functional

CC(C)(O)CC[C@H](C[C@H](O)[C@H](Cc1cccc(F)c1)NC(=O)c1cnc2ccccc2n1)C(N)=O
Ki [1]: 1320 nM | Ki [2]: 66 nM

Cc1ccc(S(=O)(=O)NC(=O)N2CCC(N3CCC(Oc4ccc(Cl)c(Cl)c4)CC3)CC2)cc1
logP (physchem): 3.8

NCC1CCCN(C(=O)c2ccc3c(c2)C(C(=O)NC2CCN(C/C4=C/CCCCCCC4)CC2)c2ccccc2O3)C1 (configuration not stated)
Ki [3]: 1.8 nM

NC(=O)c1ccc(CNC(=O)NC[C@@H]2CN(Cc3ccc(Cl)c(Cl)c3)CCO2)cc1
logP (physchem): 2.2 | IC50 [4]: 10 nM | bioavailability [5]: 89% | half-life [6]: 2.8 h

Cc1ccc(C(=O)N2CCC(=CC(=O)N[C@@H]3CCN(Cc4ccc5cc(F)ccc5c4)C3)CC2)nn1
Ki (Histamine H1 receptor [7]): 47 nM | Ki [8]: 1.8 nM

O=C(O)Cc1ccc2c(c1)/C(=C/Cn1cnc3ccccc31)c1ccccc1CO2
Ki (Thromboxane A2 receptor): 15 nM

O=C(O)Cc1ccc2c(c1)/C(=C/CN1CCCC(Cc3ccccc3)C1)c1ccccc1CO2 (configuration not stated)
Ki (Histamine H1 receptor [9]): 20 nM | Ki (Thromboxane A2 receptor): 740 nM

Cc1noc(NS(=O)(=O)c2ccccc2-c2ccc(-c3ncco3)cc2)c1C
Ki [10]: > 10000 nM

Cc1nnc(C(=O)NC(C)(C)c2nc(C(=O)NCc3ccc(F)cc3)c(O)c(=O)n2C)o1
Ki [3]: 5 nM | logP (physchem): 2.4

CN(C)C/C=C1\c2ccccc2COc2ccc(CC(=O)O)cc21
Ki (Thromboxane A2 receptor): > 1000 nM

CCOc1ccc(-n2c([C@@H](C)N(Cc3cccnc3)C(=O)Cc3ccc(OC(F)(F)F)cc3)nc3ncccc3c2=O)cc1
logP (physchem): 3.8

CCO/N=C(\c1ccc(Br)cc1)C1CCN(C2(C)CCN(C(=O)c3c(C)cc[n+]([O-])c3C)CC2)CC1 [ANCRIVIROC]
IC50 [11]: 0.6 nM | Ki [2]: 2 nM

CCCCN1C(=O)[C@@H]([C@H](O)C2CCCCC2)NC(=O)C12CCN(Cc1ccc(Oc3ccc(C(=O)O)cc3)cc1)CC2 [APLAVIROC]
bioavailability [12]: 30% | IC50 [13]: 0.1 nM | logP (physchem): 3.8

CC(=O)Nc1ccc(O)cc1OC[C@@](C)(O)CNC1CCN(Cc2ccc(Cl)cc2)CC1 [AZD4818]
Ki [3]: 5 nM | logP (physchem): 1.9

CCN(C(=O)Cc1ccc(S(C)(=O)=O)cc1)C1CCN(CC[C@@H](c2cc(F)cc(F)c2)C2CCC(S(C)(=O)=O)CC2)CC1 (some centres not stated) [AZD-5363]
logP (physchem): 3.1 | IC50 [2]: 0.17 nM

CCCCOCCOc1ccc(-c2ccc3c(c2)/C=C(/C(=O)Nc2ccc([S@@+]([O-])Cc4cncn4CCC)cc2)CCCN3CC(C)C)cc1 [CENICRIVIROC]
half-life [14]: 35 h | logP [15]: 10.2 | EC50 [16]: 0.061 nM

O=C(Nc1ccc(Cl)c(S(=O)(=O)N2CCNCC2)c1O)Nc1cccc(F)c1Cl [ELUBRIXIN]
IC50 [17]: 261 nM | IC50 [18]: > 10000 nM | logP (physchem): 4.2 | IC50 [19]: 5.1 nM

COc1cccc2c1c(NS(=O)(=O)c1ccc(Cl)s1)nn2Cc1cccc(NC(=O)CO)c1 [GSK-2239633]
bioavailability [20]: 85% | bioavailability [21]: 97% | half-life [22]: 2.6 h | Ki [23]: 10 nM | half-life [24]: 2.5 h

CCO[C@@H]1Cc2cc(C(F)(F)F)ccc2[C@H]1N1CCN(C2(C)CCN(C(=O)c3c(C)ncnc3C)CC2)C[C@@H]1C [INCB-9471]
logP (physchem): 3.9 | IC50 [2]: 3.1 nM

Cc1nnc(C(C)C)n1[C@@H]1C[C@H]2CC[C@@H](C1)N2CC[C@H](NC(=O)C1CCC(F)(F)CC1)c1ccccc1 [MARAVIROC]
logP (physchem): 4.4

Cc1nnc(C(C)C)n1[C@H]1C[C@H]2CC[C@@H](C1)N2CC[C@H](NC(=O)C1CCC(F)(F)CC1)c1ccccc1 [MARAVIROC]
IC90 [25]: 2 nM

CC[C@@H](Nc1c(Nc2cccc(C(=O)N(C)C)c2O)c(=O)c1=O)c1ccc(C)o1 [NAVARIXIN ANHYDROUS]
logP (physchem): 1

c1cc(CN2CCCNCCNCCCNCC2)ccc1CN1CCCNCCNCCCNCC1 [PLERIXAFOR]
logP [15]: -0.4

CC(C)(C)c1ccc(S(=O)(=O)Nc2ccc(Cl)cc2C(=O)c2cc[n+]([O-])cc2)cc1 [VERCIRNON]
logP (physchem): 4.7

COC[C@@H](c1ccc(C(F)(F)F)cc1)N1CCN(C2(C)CCN(C(=O)c3c(C)ncnc3C)CC2)C[C@@H]1C [VICRIVIROC]
logP (physchem): 3.6
